Data published in ChEMBL document CHEMBL1201862, “PubChem BioAssay data set” (2004).
Activity calls are given as the source filed them.

Columns and labels:
[1] = A Cell-Based Confirmatory Screen for Compounds that Inhibit VEEV, TC-83 (3).; type: functional
[2] = tested on: Streptococcus sp. 'group A'; assay: growth inhibition of control SK(-) GAS strain, dose response, counter-screen for streptokinase expression inhibitor project, luminescence, kanamycin, BacTiterGlo, confirmation (AID 1900); type: functional, organism-based
Streptokinase A = target: T1, Streptokinase A (Streptococcus pyogenes serotype M1, UniProt P10520); assay: S. pyogenes streptokinase expression inhibitors, potency, dose response, plasminogen activation absorbance, OD405 (AID 1914); type: functional, Streptococcus pyogenes M1 GAS;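 also: secreted streptokinase activity via plasminogen activation per viability signal from cell pellet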
T1 sequence (P10520 whole entry): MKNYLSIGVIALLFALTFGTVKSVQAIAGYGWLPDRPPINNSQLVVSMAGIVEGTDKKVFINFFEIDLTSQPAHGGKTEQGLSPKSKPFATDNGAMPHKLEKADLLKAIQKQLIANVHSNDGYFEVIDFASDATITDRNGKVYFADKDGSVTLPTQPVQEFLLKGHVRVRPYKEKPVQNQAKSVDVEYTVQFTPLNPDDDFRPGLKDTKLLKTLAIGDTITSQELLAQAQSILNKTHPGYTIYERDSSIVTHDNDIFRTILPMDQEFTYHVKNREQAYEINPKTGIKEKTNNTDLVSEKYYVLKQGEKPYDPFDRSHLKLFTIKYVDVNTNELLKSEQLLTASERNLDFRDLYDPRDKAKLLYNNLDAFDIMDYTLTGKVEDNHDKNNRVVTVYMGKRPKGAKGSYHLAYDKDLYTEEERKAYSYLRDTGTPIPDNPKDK

Streptococcus = assay: Group A Streptococcus viability loss, dose response, counter-screen for streptokinase expression inhibitor project, luminescence, BacTiterGlo (AID 1915); type: functional, organism-based;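 also: potency for reduction of bacterial viability or growth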
[3] = Luminescence Cell-Based Dose Retest to Confirm Inhibitors of Cancer Stem Cells. [Related pubchem assays (depositor defined):AID2717, AID2721]; type: functional; conditions: Homo sapiens
[4] = target: Disintegrin and metalloproteinase domain-containing protein 17 (Homo sapiens, UniProt P78536); assay: ADAM17 protease inhibitors, dose response, counter-screen for ADAM10 exosite inhibitor project, biochemical, quenched FRET substrate (AID 743253)
[5] = target: T2, High affinity choline transporter 1 (Homo sapiens, UniProt Q9GZV3); assay: CHT choline uptake inhibitors, dose response, cell-based, HEK-293 hCHT, [3H]-choline uptake (AID 652177); type: functional
T2 sequence (Q9GZV3 whole entry): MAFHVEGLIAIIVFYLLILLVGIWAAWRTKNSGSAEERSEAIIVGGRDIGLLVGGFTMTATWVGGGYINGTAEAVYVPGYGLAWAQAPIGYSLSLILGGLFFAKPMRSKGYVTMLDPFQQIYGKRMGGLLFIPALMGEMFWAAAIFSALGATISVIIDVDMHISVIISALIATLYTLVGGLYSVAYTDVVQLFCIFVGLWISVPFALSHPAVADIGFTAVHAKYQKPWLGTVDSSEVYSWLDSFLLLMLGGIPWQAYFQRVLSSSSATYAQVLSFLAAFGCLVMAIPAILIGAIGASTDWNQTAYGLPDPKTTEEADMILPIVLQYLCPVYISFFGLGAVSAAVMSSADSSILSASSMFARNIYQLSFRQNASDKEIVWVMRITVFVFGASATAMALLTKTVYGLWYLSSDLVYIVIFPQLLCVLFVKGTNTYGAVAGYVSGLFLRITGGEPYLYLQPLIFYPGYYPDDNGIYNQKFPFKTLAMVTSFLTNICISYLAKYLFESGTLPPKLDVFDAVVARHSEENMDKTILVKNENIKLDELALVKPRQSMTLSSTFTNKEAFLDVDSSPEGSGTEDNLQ

[6] = HepG2 cell cytotoxicity, dose response, cytotoxicity control, luminescence plate reader, powder samples, set 2 (AID 651860); type: functional, cell-based
[7] = A375 melanoma cell viability loss, dose response, counter-screen for MITF inhibitor project, CellTiter-Glo luminescence, dry powder, set 4 (AID 624364); type: functional, cell-based; conditions: A-375;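 also: A375 melanoma cells are MITF independent so this is a counter screen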
[8] = A375 melanoma cell cytotoxicity, dose response, counter-screen for MITF inhibitor project, CellTiter-Glo luminescence, dry powder, set 2 (AID 624489); type: functional, cell-based; conditions: A-375;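 also: actives are compounds lowering A375 viability meaning general cytotoxicity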
[9] = lymphoblastoid cell cytotoxicity, dose response, cytotoxicity control, plate reader, dry powder, set 2 (AID 624367); type: functional
[10] = A549 cell cytotoxicity, dose response, cytotoxicity control, plate reader, cherry-pick, antagonist series (AID 743412); type: functional, cell-based
[11] = HepG2 cell cytotoxicity, dose response, cytotoxicity control, plate reader, cherry-pick, antagonist series (AID 743416); type: functional, cell-based
[12] = LGR2 antagonists, dose response, cell-based, HEK293, CRE-luciferase reporter, cherry pick (AID 743342); type: functional
[13] = MC4R antagonists, dose response, counter-screen for LGR2 antagonist project, cell-based, plate reader, cherry pick (AID 743444); type: functional;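 also: transfected HEK 293 cells stimulated with alpha-MSH peptide; potency of inhibitors of the alpha-MSH evoked signal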
[14] = HEK293 cell cytotoxicity, dose response, cytotoxicity control, plate reader, cherry-picked samples (AID 743446); type: functional, cell-based
Paired box protein Pax-8 = Paired box protein Pax-8 (Homo sapiens, UniProt Q06710); assay: inhibitors of PAX8-driven TPO luciferase reporter, dose response, RMG-I cells, cherry-pick (AID 687027); type: functional, cell-based;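 also: luciferase reporter driven by Pax8 target thyroperoxidase promoter measured by SteadyGlo luminescence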
[15] = IGROV1 ovarian cancer cell cytotoxicity, dose response, PAX8 inhibitor project, plate reader, dry powder samples (AID 743043); type: functional, cell-based; conditions: IGROV-1
[16] = cytotoxicity in OVCAR8 ovarian cancer cells, dose response, PAX8 project, cell-based, plate reader, dry powder samples (AID 743197); type: functional; conditions: OVCAR-8

Chain of Paired box protein Pax-8 (Q06710 whole entry): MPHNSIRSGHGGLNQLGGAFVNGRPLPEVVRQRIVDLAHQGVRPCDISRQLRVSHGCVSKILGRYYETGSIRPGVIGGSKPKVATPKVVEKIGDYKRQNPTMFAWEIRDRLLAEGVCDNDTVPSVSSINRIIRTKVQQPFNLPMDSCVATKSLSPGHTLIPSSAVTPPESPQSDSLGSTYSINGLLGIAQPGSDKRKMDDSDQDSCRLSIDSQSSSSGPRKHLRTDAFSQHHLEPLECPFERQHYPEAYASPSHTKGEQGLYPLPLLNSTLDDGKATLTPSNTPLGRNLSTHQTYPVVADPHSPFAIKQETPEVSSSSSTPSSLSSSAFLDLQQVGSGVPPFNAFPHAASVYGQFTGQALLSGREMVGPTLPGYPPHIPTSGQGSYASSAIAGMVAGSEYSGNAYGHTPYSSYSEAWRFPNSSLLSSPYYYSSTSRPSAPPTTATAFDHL
Chain of Disintegrin and metalloproteinase domain-containing protein 17 (P78536 whole entry, the tested form may be a part): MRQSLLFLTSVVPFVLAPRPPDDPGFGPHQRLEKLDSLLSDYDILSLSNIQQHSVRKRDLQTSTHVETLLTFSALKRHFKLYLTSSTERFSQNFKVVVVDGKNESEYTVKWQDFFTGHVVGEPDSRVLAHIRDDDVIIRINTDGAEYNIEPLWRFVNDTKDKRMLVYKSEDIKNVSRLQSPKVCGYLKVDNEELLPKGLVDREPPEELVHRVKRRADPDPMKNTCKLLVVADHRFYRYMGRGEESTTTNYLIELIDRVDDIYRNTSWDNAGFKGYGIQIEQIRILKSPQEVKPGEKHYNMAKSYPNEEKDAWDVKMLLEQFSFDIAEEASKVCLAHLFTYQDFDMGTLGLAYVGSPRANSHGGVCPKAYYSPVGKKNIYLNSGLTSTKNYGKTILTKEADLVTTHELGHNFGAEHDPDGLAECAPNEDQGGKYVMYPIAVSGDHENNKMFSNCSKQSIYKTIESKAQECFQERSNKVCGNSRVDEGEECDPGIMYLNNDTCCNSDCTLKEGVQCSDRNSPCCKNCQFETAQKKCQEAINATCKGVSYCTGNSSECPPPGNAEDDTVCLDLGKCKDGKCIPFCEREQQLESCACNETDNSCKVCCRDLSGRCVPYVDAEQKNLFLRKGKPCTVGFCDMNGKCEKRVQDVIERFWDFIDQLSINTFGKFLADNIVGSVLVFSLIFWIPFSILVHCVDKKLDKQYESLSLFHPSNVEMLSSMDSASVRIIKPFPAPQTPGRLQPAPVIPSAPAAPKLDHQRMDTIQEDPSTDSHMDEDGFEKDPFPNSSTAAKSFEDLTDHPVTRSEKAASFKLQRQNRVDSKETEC

SMILES: O=c1c2cc([N+](=O)[O-])ccc2nc(CN2CCOCC2)n1-c1ccccc1F
- IC50 [1]: 9.6 µM (active)

SMILES: Oc1ccc(Cl)cc1-c1cc(-c2cccc(Br)c2)[nH]n1
- EC50 [2]: 5.6 µM (active)
- EC50 (Streptokinase A): > 150 µM (not active)
- EC50 (Streptococcus): 6.65 µM (active)
- AC50 [3]: 5.22 µM (active)
- IC50 [4]: > 69.5 µM (inactive)

SMILES: CCn1cc(CNC(=O)c2ccc(OC)c(OC3CCN(C(C)C)CC3)c2)cn1
- IC50 [5]: 6.81 µM (active)

SMILES: Cc1ccc(S(=O)(=O)Nc2cc(C(C(=O)OC(C)C)C(=O)C(F)(F)F)c(O)c3ccccc23)cc1 (centres undefined)
- AC50 [6]: > 52 µM (inactive)

SMILES: C=CCNC1=C(NCCN(CC)CC)C(=O)c2ccccc2C1=O
- AC50 [7]: 36 µM (active)
- AC50 [8]: 17.4 µM (active)

SMILES: Cc1cc(C(=O)Nc2ccc3c(c2)C(=O)N(C)[C@@H]2CC[C@H](CC(=O)NCc4ccc(-c5ccccc5)cc4)O[C@@H]2CO3)no1
- AbsAC35 [9]: 211.39 µM

SMILES: COc1ccc(NC(=O)Nc2ccc3c(c2)C(=O)N([C@H](C)CO)C[C@H](C)[C@H](CN(C)CC2CCCCC2)OCCCC[C@H](C)O3)cc1
- AC50 [10]: 17.9 µM (active)
- AC50 [11]: 13.7 µM (active)
- AC50 [12]: 38.9 µM (active)
- AC50 [13]: 42.7 µM (active)
- AC50 [14]: 40.3 µM (active)

SMILES: COc1cccc(-c2ccc([C@H]3[C@@H](CO)N(C(=O)c4ccccn4)[C@H]3C#N)cc2)c1
- AC50 (Paired box protein Pax-8): 7.31 µM (active)
- AC50 [15]: 68.1 µM (active)
- AC50 [16]: 39.2 µM (active)
